Assays:
[1] = target: T1, Cb-1 receptor stably expressed in CHO-K1 cells (Homo sapiens, UniProt P21554); assay: Cyclic AMP accumulation (HTRF cAMP assay, antagonism of CP55940); type: cell-based; conditions: forskolin and CP55940 (agonist), 30 min at 25° C.; for IC50: read-out: Example C2 cAMP (antagonism) pIC50 (converted)
T1 construct: host or cells: CHO-K1
Method: (§1) Human Cb-1 transfected CHO-K1 cells (Euroscreen; Cat # ES-110-C; hCB1-D1; accession n′ Swissprot X54937) were maintained as described previously (Felder et al., 1995 & 1998). For membrane preparation, cells were cultured in DMEM/Ham's F12 medium containing 10% (v/v) heat inactivated FCS, 100 U/ml penicillin and 100 μg/ml streptomycin, 100 μg/ml pyruvate and 292 μg/ml L-glutamine under 5% CO2 at 37° C. in roller bottles, with medium changed 3 times a week. When 90% confluent, cells collected by trypsinisation and re-seeded at 1:10 or 1:20 dilutions to fresh roller bottles. For measurement of cAMP formation, cells were cultured to 90% confluency in Falcon T175 flasks.
Using the commercially available dynamic homogenous time-resolved fluorescence cAMP assay, the cAMP measurements on CHO-K1 cells that stably express the Cb-1 receptor were performed. Cells were detached from flasks using 3 ml EDTA (0.04% (w/v) in PBS) and resuspended in PBS (without Ca^2+ and Mg^2+) and centrifuged at 500×g for 5 min. Cell pellet was resuspended in stimulation buffer (HBSS medium containing 1 mM IBMX, 5 mM Hepes, 10 mM MgCl2 and 0.1% (w/v) BSA) and were dispensed into a black 96 well plate at a cell density of 20000 cells per well. After 30 min at 25° C., an equal volume of stimulation buffer containing forskolin and CP55940 (agonist) and/or a Cb-1 antagonist was added to the cells. After 30 min incubation at 25° C., cAMP detection was performed by addition of an equal volume of cAMP-XL665 and anti-cAMP-cryptate conjugates. The plate was incubated for a further 60 min at 25° C. and then measured with Discovery (PerkinElmer N.V./S.A. Belgium).

[2] = target: T2, Human Cb-1 receptor (transfected CHO-K1 cell membranes) (Homo sapiens, UniProt P21554); assay: Cb-1 competition receptor binding in cell membranes ([3H]CP55,940 displacement); conditions: 3H-CP55,940 0.5 nM, 1 hour at 25° C.; for IC50: read-out: Example C1 Binding pIC50 (converted)
T2 construct: host or cells: CHO-K1
Method: as §1
Prior to membrane preparation, confluent cells were treated with 5 mM butyrate for 24 hours. Medium was aspirated and cells were scraped from bottles in 50 ml homogenization buffer consisting of 15 mM Tris-HCl, pH 7.4 containing 2 mM MgCl2, 0.3 mM EDTA and 1 mM EGTA. The cells were then centrifuged for 10 minutes at 1700×g at 4° C. and homogenized in 20 ml same buffer with an Ultra Turrax. The crude membrane pellet was collected by two consecutive centrifugation steps at 20,000×g for 10 min and for 20 min at 25,000×g respectively, separated by a washing/homogenization step in 10 ml homogenization buffer. Final cell pellets were resuspended in a volume of 6 ml/roller bottle in stock buffer consisting of 7.5 mM Tris-HCl, pH 7.4, containing 12.5 mM MgCl2, 0.3 mM EDTA, 1 mM EGTA and 250 mM sucrose. Protein content was assayed by the BioRad method (Bradford, 1976).
Competition binding assays were performed in triplicate in a final volume of 0.5 ml containing incubation buffer (50 mM Tris-HCl, pH 7.4 containing 2.5 mM EDTA and 0.5% (w/v) BSA), 50 μl ^3H-CP55,940 (0.5 nM final), 0.4 ml transfected CHO-K1 membrane proteins (60 μg/ml) in the presence or absence of test compound. Non-specific binding determined using 1 μM CP55,940. The samples were incubated for 1 hour at 25° C., being terminated by rapid filtration on GF/C filters presoaked in 0.1% polyethylenimine, using a Unifilter-96 Harvester (PerkinElmer N.V./S.A. Belgium). Filters were washed 6 times with cold washing buffer (50 mM Tris-HCl, pH 7.4 containing 0.1% BSA), plates air-dried overnight before bound [^3H]CP55,940 was measured by liquid scintillation counting using a TopCount NXT microplate scintillation counter (Packard BioScience/ PerkinElmer N.V./S.A. Belgium). IC50 values were determined by a single-site binding equation (GraphPad Prism, San Diego, Calif., U.S.A.).

[3] = tested on: food intake in rats and mice; assay: Feeding experiments, acute dose-response on food intake; type: in vivo; conditions: oral single dose, food intake 1 h after lights out
Method: Male Sprague Dawley rats (weighing 250-300 g at the time of experiment) were obtained from Charles River (Sulzfeld, Kisslegg, Germany). Male C57Bl/6J Rj mice (weighing 25-30 g at the time of experiments) were obtained from Janvier (Le Genest-St-Isle, France). All animals had free access to water and were individually housed under 12-h light:dark cycle (lights on at 22:00 h) and at a temperature of 19-22° C. and 35-40% humidity in Techniplast IVC cages adapted to fit external food hoppers. Rats and mice were fed a standard purified diet containing 10% kcal fat (Dyets, Inc. Bethlehem, USA; or Research diets, New Brunswick, N.J., USA). All experiments were carried out in accordance with the European Communities Council Directives (86/609/EEC) and were approved by the local ethical committee.
An acute dose-response analysis for each compound was performed. All rats and mice were randomly assigned and orally dosed with either vehicle (10% cyclodextran containing 0.9% (w/v) saline) or vehicle containing a single concentration of compound (0.16, 0.63, 2.50, 10.0, 40.0 mg/kg at 10 ml/kg) so that the average latency from time of drug administration and lights out was 45 minutes, with 6 animals per group. Food intake was measured 1, 2, 4, 6 and 24 hours after lights out.

[4] = target: T2, Human Cb-1 receptor (transfected CHO-K1 cell membranes); assay: Cb-1 competition receptor binding in cell membranes ([3H]CP55,940 displacement); conditions: statement on the enantiomers of the racemate, no test named

T1 sequence (P21554 whole entry): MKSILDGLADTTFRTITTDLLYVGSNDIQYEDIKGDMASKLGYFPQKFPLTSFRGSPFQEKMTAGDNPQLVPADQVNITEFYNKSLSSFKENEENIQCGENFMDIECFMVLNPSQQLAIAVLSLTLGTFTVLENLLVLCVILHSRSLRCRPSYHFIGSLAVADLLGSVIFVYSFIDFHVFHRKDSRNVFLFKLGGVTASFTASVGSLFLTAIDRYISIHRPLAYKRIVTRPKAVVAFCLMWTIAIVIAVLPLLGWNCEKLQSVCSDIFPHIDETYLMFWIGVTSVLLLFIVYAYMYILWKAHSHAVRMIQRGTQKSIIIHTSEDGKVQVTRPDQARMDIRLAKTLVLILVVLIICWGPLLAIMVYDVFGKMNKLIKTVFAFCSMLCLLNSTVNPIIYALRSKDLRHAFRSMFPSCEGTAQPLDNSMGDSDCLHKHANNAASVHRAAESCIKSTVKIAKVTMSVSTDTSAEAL
T2 sequence (P21554 whole entry): as above

Row | SMILES | IC50 [2] [nM] | Example C1 Binding pIC50 [2] | also measured
1 | Clc1ccc(C(c2ccc3nnn(C4CCCCC4)c3c2)n2cncn2)cc1 (racemic) [Intermediate 7, 1H-Benzotriazole, 6-[(4-chlorophenyl)-1H-1,2,4-triazol-1-ylmethyl]-1-cyclohexyl-] | 288 |  | IC50 [1]: 36.3 nM; ED50 ([3]; po, 1 h, read-out: Example C3 Food intake at 1 h ED50): 3.28 mg/kg
2 | Clc1ccc([C@H](c2ccc3nnn(C4CCCCC4)c3c2)n2cncn2)cc1 (single isomer, unassigned) [Compound 1] | 8910 |  | Example C3 Food intake at 1 h ED50 [3]: >100 mg/kg
3 | Clc1ccc([C@H](c2ccc3nnn(C4CCCCC4)c3c2)n2cncn2)cc1 (single isomer, unassigned) [Compound 2, 1H-Benzotriazole, (−)-6-[(4-chlorophenyl)-1H-1,2,4-triazol-1-ylmethyl]-1-cyclohexyl-] | 141 |  | Example C3 Food intake at 1 h ED50 [3]: 2.69 mg/kg
4 | Clc1ccc([C@H](c2ccc3nnn(C4CCCCC4)c3c2)n2cncn2)cc1 [Compound 2, 1H-Benzotriazole, (−)-6-[(4-chlorophenyl)-1H-1,2,4-triazol-1-ylmethyl]-1-cyclohexyl-] |  |  | active as a CB1 modulator [4]: active
5 | CC(C)CCn1nnc2ccc(C(c3ccc(Cl)cc3)n3ccnc3)cc21 (stereo not drawn) [Compound 4] | 933 |  | IC50 [1]: 339 nM
6 | Clc1ccc(Cn2nnc3ccc(C(c4ccc(Cl)cc4)n4ccnc4)cc32)cc1 (stereo not drawn) [Compound 5] | 832 |  | IC50 [1]: 955 nM
7 | Cn1nnc2ccc(C(c3ccc(Cl)cc3)c3nccs3)cc21 (stereo not drawn) [Compound 6] | 5370 |  | 
8 | CC(C)n1nnc2ccc(C(c3ccc(Cl)cc3)n3cncn3)cc21 (stereo not drawn) [Compound 7] |  | 6.69 | Example C2 cAMP (antagonism) pIC50 [1]: 6.9
9 | CCCCn1nnc2ccc(C(c3ccc(Cl)cc3)n3cncn3)cc21 (stereo not drawn) [Compound 8] |  | 6.45 | Example C2 cAMP (antagonism) pIC50 [1]: 6.62
10 | c1ccc(C(c2ccc3nnn(C4CCCCC4)c3c2)n2ccnc2)cc1 (stereo not drawn) [Compound 9] |  | 6.05 | Example C2 cAMP (antagonism) pIC50 [1]: 5.79
11 | Clc1ccc(C(c2ccc3nnn(-c4ccccc4)c3c2)n2ccnc2)cc1 (stereo not drawn) [Compound 10] |  | 6.28 | Example C2 cAMP (antagonism) pIC50 [1]: 6.38
12 | CC(c1ccccc1)n1nnc2ccc(C(c3ccc(Cl)cc3)n3ccnc3)cc21 (stereo not drawn) [Compound 11] |  | 5.67 | 
13 | CC(C)n1nnc2ccc(C(c3ccc(Cl)cc3)n3ccnc3)cc21 (stereo not drawn) [Compound 12] |  | 5.53 | 
14 | Clc1ccc(C(c2ccc3nnn(Cc4ccccc4)c3c2)n2ccnc2)cc1 (stereo not drawn) [Compound 13] |  | 5.61 | 
